Values of other authors, collected in patent US20080096857A1, “Photodynamic Therapy For The Treatment Of Hyperactive Sebaceous Gland Disorders Using Topically Applied Hydrophobic Green Porphyrins” (QLT Inc., priority 2004, published 2008).

System: acne vulgaris
Conditions: topical ALA-PDT of acne vulgaris; J. Invest Dermatol 115:183-192, 2000

NCC(=O)CCC(=O)O [ALA, 5-aminolevulinic acid]
adverse events during and after the treatment: serious adverse events that occurred during and after the treatment including erythema, edema, and sensations of pain, burning and itching
